In patent publication US9018392B1, “Compounds, compositions and methods for crop enhancement” (Active AgriProducts Inc., priority 2014, dated 2015):

How the values were obtained:
Type in all cases: in vivo
wheat [1] = test: Experiment 1 wheat seed germination, laboratory conditions, seedling trays; conditions: 20 ppm and 40 ppm seed treatment
Protocol: (§1) For the Experiments described below, application of 1,2-dimethyl-4-dimethylaminomethyl-5-hydroxy benzimidazole (referred to herein as INTRINSIC™) was by way of seed treatment. Treated seeds were prepared by mixing 1.0 kg of seed and 2.0 mL of an aqueous solution of INTRINSIC™ comprising 0.1% potassium hydroxide in a ZIPLOC™ bag. Control seeds were prepared by mixing 1.0 kg of seed and 2.0 mL of aqueous 0.1% potassium hydroxide solution in a ZIPLOC™ bag. The seeds and solutions were sufficiently mixed to wet the seeds. The seeds were dried after being wetted. […] Experiment 1 tested the effects of 20 ppm and 40 ppm INTRINSIC™ on wheat seed germination under laboratory conditions. Treated and control seeds were grown in seedling trays lined with moistened tissue.

wheat [2] = test: Experiment 2(a) wheat root growth, laboratory conditions, seedling trays; conditions: 20 ppm and 40 ppm seed treatment; 72 hours; FIG. 2(a)
Protocol: as §1, with “Experiment 2(a)” for “Experiment 1”, “wheat root growth” for “wheat seed germination”, “tissue. Experiment 2(b) tested the effects of 40 ppm INTRINSIC™ on wheat root growth under greenhouse conditions. Experiment 2(c) tested the effects of 40 ppm INTRINSIC™ on wheat root growth under laboratory conditions. Treated and control seeds were grown in agar culture medium. Results at 8 days are shown Figure in FIG. 2(c).” for “tissue.”

wheat [3] = test: Experiment 2(b) wheat root growth, greenhouse conditions; conditions: 40 ppm seed treatment, 10 days, FIG. 2(b)
Protocol: as §1, with “Experiment 2(a)” for “Experiment 1”, “wheat root growth” for “wheat seed germination”, “tissue. Experiment 2(b) tested the effects of 40 ppm INTRINSIC™ on wheat root growth under greenhouse conditions. Experiment 2(c) tested the effects of 40 ppm INTRINSIC™ on wheat root growth under laboratory conditions. Treated and control seeds were grown in agar culture medium. Results at 8 days are shown Figure in FIG. 2(c).” for “tissue.”

wheat [4] = test: Experiment 2(c) wheat root growth, laboratory conditions, agar culture medium; conditions: 40 ppm seed treatment, 8 days, FIG. 2(c)
Protocol: as §1, with “Experiment 2(a)” for “Experiment 1”, “wheat root growth under laboratory conditions. […] Experiment 2(b) tested the effects of 40 ppm INTRINSIC™ on wheat root growth under greenhouse conditions. Experiment 2(c) tested the effects of 40 ppm INTRINSIC™ on wheat root growth” for “wheat seed germination”, “in agar culture medium. Results at 8 days are shown Figure in FIG. 2(c).” for “in seedling trays lined with moistened tissue.”

canola [5] = test: Experiment 3 canola root growth, greenhouse conditions; conditions: 40 ppm seed treatment; 10 days
Protocol: as §1, with “Experiment 3” for “Experiment 1”, “of” for “of 20 ppm and”, “on canola root growth” for “on wheat seed germination”, “under greenhouse” for “under laboratory”, “conditions.” for “conditions. Treated and control seeds were grown in seedling trays lined with moistened tissue.”

soy bean [6] = test: Experiment 4 soy bean root growth, greenhouse conditions; conditions: 40 ppm seed treatment; 10 days
Protocol: as §1, with “Experiment 4” for “Experiment 1”, “of” for “of 20 ppm and”, “on soy bean root growth” for “on wheat seed germination”, “under greenhouse” for “under laboratory”, “conditions.” for “conditions. Treated and control seeds were grown in seedling trays lined with moistened tissue.”

corn = test: Experiment 5 corn root growth, greenhouse conditions; conditions: 40 ppm seed treatment; 10 days
Protocol: as §1, with “Experiment 5” for “Experiment 1”, “of” for “of 20 ppm and”, “on corn root growth” for “on wheat seed germination”, “under greenhouse” for “under laboratory”, “conditions.” for “conditions. Treated and control seeds were grown in seedling trays lined with moistened tissue.”

wheat [7] = test: Experiment 6 wheat growth, field test conditions; conditions: 20 ppm and 40 ppm, alone and combined with CRUISER MAXX™ and DIVIDEND™, 10 days
Protocol: For the Experiments described below, application of 1,2-dimethyl-4-dimethylaminomethyl-5-hydroxy benzimidazole (referred to herein as INTRINSICTM) was by way of seed treatment. Treated seeds were prepared by mixing 1.0 kg of seed and 2.0 mL of an aqueous solution of INTRINSICTM comprising 0.1% potassium hydroxide in a ZIPLOCTM bag. Control seeds were prepared by mixing 1.0 kg of seed and 2.0 mL of aqueous 0.1% potassium hydroxide solution in a ZIPLOCTM bag. The seeds and solutions were sufficiently mixed to wet the seeds. The seeds were dried after being wetted. […] Experiment 6 tested the effects of 20 ppm and 40 ppm INTRINSICTM, alone and combined with known seed treatments (CRUISER […] and […], from SyngentaTM Canada Inc., applied per manufacturer's recommendations), on wheat growth under field test conditions.

canola [8] = test: Experiment 7 canola growth, field test conditions, first site; conditions: 20 ppm and 40 ppm seed treatment, 10 days
Protocol: (§2) For the Experiments described below, application of 1,2-dimethyl-4-dimethylaminomethyl-5-hydroxy benzimidazole (referred to herein as INTRINSIC™) was by way of seed treatment. Treated seeds were prepared by mixing 1.0 kg of seed and 2.0 mL of an aqueous solution of INTRINSIC™ comprising 0.1% potassium hydroxide in a ZIPLOC™ bag. Control seeds were prepared by mixing 1.0 kg of seed and 2.0 mL of aqueous 0.1% potassium hydroxide solution in a ZIPLOC™ bag. The seeds and solutions were sufficiently mixed to wet the seeds. The seeds were dried after being wetted. […] Experiments 7 and 8 tested the effects of 20 ppm and 40 ppm INTRINSIC™, on canola growth under field test conditions.

canola [9] = test: Experiment 8 canola growth, field test conditions, second site; conditions: 10 days
Protocol: as §2

wheat [10] = test: Experiment 9 wheat yield, field test conditions; conditions: crop maturation (approximately 90 days)
Protocol: For the Experiments described below, application of 1,2-dimethyl-4-dimethylaminomethyl-5-hydroxy benzimidazole (referred to herein as INTRINSICTM) was by way of seed treatment. Treated seeds were prepared by mixing 1.0 kg of seed and 2.0 mL of an aqueous solution of INTRINSICTM comprising 0.1% potassium hydroxide in a ZIPLOCTM bag. Control seeds were prepared by mixing 1.0 kg of seed and 2.0 mL of aqueous 0.1% potassium hydroxide solution in a ZIPLOCTM bag. The seeds and solutions were sufficiently mixed to wet the seeds. The seeds were dried after being wetted. […] Experiment 9 tested the effects of 40 ppm INTRINSICTM, CRUISER […], and the combination of the two, on wheat yield under field test conditions. CRUISER […] was applied per the manufacturer's recommendations. FIGS. 9(a) and 9(b) display yield results at crop maturation (approximately 90 days), showing greater yield crops from INTRINSICTM-treated seeds (whether alone or in combination with CRUISER […]) compared to crops from control seeds.

canola [11] = test: Experiment 10 canola yield, field test conditions, first site; conditions: 20 ppm and 40 ppm seed treatment, crop maturation (approximately 90 days)
Protocol: as §2, with “10” for “7”, “11” for “8”, “INTRINSIC™” for “INTRINSIC™,”, “yield” for “growth”, “conditions. FIGS. 10(a) and 10(b) display yield results at crop maturation (approximately 90 days) at a first site, showing greater yield crops from treated seeds compared to crops from control seeds. FIGS. 11(a) and 11(b) display yield results at crop maturation (approximately 90 days) at a second site, again showing greater yield crops from treated seeds compared to crops from control seeds.” for “conditions.”

canola [12] = test: Experiment 11 canola yield, field test conditions, second site; conditions: 20 ppm and 40 ppm seed treatment, crop maturation (approximately 90 days)
Protocol: as §2, with “10” for “7”, “11” for “8”, “INTRINSIC™” for “INTRINSIC™,”, “yield” for “growth”, “conditions. FIGS. 10(a) and 10(b) display yield results at crop maturation (approximately 90 days) at a first site, showing greater yield crops from treated seeds compared to crops from control seeds. FIGS. 11(a) and 11(b) display yield results at crop maturation (approximately 90 days) at a second site, again showing greater yield crops from treated seeds compared to crops from control seeds.” for “conditions.”

soy bean [13] = test: Experiment 12 soy bean yield, field test conditions; conditions: 20 ppm and 40 ppm seed treatment; crop maturation (approximately 90 days)
Protocol: For the Experiments described below, application of 1,2-dimethyl-4-dimethylaminomethyl-5-hydroxy benzimidazole (referred to herein as INTRINSIC™) was by way of seed treatment. Treated seeds were prepared by mixing 1.0 kg of seed and 2.0 mL of an aqueous solution of INTRINSIC™ comprising 0.1% potassium hydroxide in a ZIPLOC™ bag. Control seeds were prepared by mixing 1.0 kg of seed and 2.0 mL of aqueous 0.1% potassium hydroxide solution in a ZIPLOC™ bag. The seeds and solutions were sufficiently mixed to wet the seeds. The seeds were dried after being wetted. […] Experiment 12 tested the effects of 20 ppm and 40 ppm INTRINSIC™ on soy bean yield under field test conditions. FIGS. 12(a) and 12(b) display yield results at crop maturation (approximately 90 days), showing greater yield crops from treated seeds compared to crops from control seeds.

[14] = 20 ppm and 40 ppm seed treatment
[15] = 40 ppm seed treatment, another set of tests

Structure (SMILES): Cc1nc2c(CN(C)C)c(O)ccc2n1C [INTRINSIC™, 1,2-dimethyl-4-dimethylaminomethyl-5-hydroxy benzimidazole]
- number of wheat seeds broken open compared to control (wheat [1]; 24 hours): greater number
- number of roots compared to control seedlings (wheat [1]; 48 h, 72 h and 96 h): greater number of roots
- root length compared to control seedlings (wheat [1]; 48 h, 72 h and 96 h): longer roots
- shoot length compared to control seedlings (wheat [1]; 48 h, 72 h and 96 h): longer shoots
- number of roots compared to control seedlings (wheat [2]): greater number of roots
- root length compared to control seedlings (wheat [2]): longer roots
- shoot length compared to control seedlings (wheat [2]): longer shoots
- number of roots compared to control seedlings (wheat [3]): greater number of roots
- root length compared to control seedlings (wheat [3]): longer roots
- shoot length compared to control seedlings (wheat [3]): longer shoots
- number of roots compared to control seedlings (wheat [4]): greater number of roots
- root length compared to control seedlings (wheat [4]): longer roots
- shoot length compared to control seedlings (wheat [4]): longer shoots
- foliage size compared to control seedlings (canola [5]): larger foliage
- number of roots compared to control seedlings (canola [5]): greater number of roots
- root length compared to control seedlings (canola [5]): longer roots
- foliage size compared to control seedlings (soy bean [6]): larger foliage
- number of roots compared to control seedlings (soy bean [6]): greater number of roots
- foliage size compared to control seedlings (corn): larger foliage
- number of roots compared to control seedlings (corn): greater number of roots
- root length compared to control seedlings (wheat [7]): significant increases
- root surface area compared to control seedlings (wheat [7]): significant increases
- root weight compared to control seedlings (wheat [7]; another set of tests): significant increases
- shoot weight compared to control seedlings (wheat [7]; another set of tests): significant increases
- root length compared to control seedlings (canola [8]): significant increases
- root surface area compared to control seedlings (canola [8]): significant increases
- root weight compared to control seedlings (canola [8]; another set of tests): significant increases
- shoot weight compared to control seedlings (canola [8]; another set of tests): significant increases
- root length compared to control seedlings (canola [9]; [14]): significant increases
- root surface area compared to control seedlings (canola [9]; [14]): significant increases
- root weight compared to control seedlings (canola [9]; [15]): significant increases
- shoot weight compared to control seedlings (canola [9]; [15]): significant increases
- wheat yield compared to crops from control seeds (wheat [10]; 40 ppm seed treatment alone): greater yield
- wheat yield compared to crops from control seeds (wheat [10]; 40 ppm seed treatment in combination with CRUISER MAXX™): greater yield
- canola yield compared to crops from control seeds (canola [11]): greater yield
- canola yield compared to crops from control seeds (canola [12]): greater yield
- soy bean yield compared to crops from control seeds (soy bean [13]): greater yield
